Target: T1, human TPO receptor (hTPOR) (Homo sapiens, UniProt P40238)
T1 construct: expressed in transfected cells; host or cells: BaF-B03 (murine IL-3 dependent cell line)
T1 sequence (P40238 26-635): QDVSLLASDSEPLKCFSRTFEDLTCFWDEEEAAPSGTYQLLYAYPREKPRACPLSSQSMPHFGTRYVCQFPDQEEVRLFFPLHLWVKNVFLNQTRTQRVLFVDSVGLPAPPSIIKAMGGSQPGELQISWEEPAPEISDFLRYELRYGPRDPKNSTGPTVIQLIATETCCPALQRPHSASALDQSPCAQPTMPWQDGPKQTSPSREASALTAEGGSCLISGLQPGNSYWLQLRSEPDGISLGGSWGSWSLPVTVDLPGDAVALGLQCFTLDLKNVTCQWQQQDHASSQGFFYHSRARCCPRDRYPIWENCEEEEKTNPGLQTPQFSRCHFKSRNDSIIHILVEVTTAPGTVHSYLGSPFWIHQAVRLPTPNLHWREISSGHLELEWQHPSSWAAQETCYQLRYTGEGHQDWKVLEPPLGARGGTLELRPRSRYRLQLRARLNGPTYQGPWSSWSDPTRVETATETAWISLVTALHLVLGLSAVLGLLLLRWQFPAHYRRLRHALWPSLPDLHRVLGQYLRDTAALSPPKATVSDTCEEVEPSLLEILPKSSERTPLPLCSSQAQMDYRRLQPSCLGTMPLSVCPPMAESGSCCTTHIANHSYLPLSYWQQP
Assay: Thrombopoietic activity: proliferation of TPO dependent BaF/hTPOR cells (WST-1, absorbance at 450 nm)
Type: cell-based
Conditions: 20 h + 4 h WST-1, ED50 = half concentration of the concentration showing the maximum thrombopoietic activity, Table 1
Description: The TPO dependent BaF/hTPOR cell line which was established by introducing human TPO receptor (hTPOR) into BaF-B03 cells according to Collins et al (J. Cell. Physiol., 137:293-298 (1988)) was used to test the thrombopoietic activity of the present compound. The DNA sequences and encoded peptide sequences for human hTPOR have been described by Vigon et al (Proc. Natl. Acad. Sci. USA, 89:5640-5644 (1992)). TPO dose not have any ability to support proliferation of interlukin-3 dependent parental cell line BaF-B03. BAF/hTPOR cells were maintained in RPMI medium and WEHI-3B conditioned medium as a source of murine interleukin-3 (IL-3). These cells were washed and resuspended in RPMI medium without a source of murine IL-3 and seeded into each well of 96-well microtiter plates at a density of 5×10^4 cells per well in the absence or presence of various concentration of hTPO or the present compound. After incubation at 37° C. for 20 hours in the 5% CO2 incubator, 10% WST-1 reagent (Takara Biomedicals, Japan) was added to each wells and the cells were further incubated for 4 hours. The absorbance at 450 nm was measured. Tables 1 and 2 exemplify the ED50 for tested compounds of the present invention, wherein the ED50 is the half concentration of the concentration showing the maximum thrombopoietic activity.

Row | EC50 [nM] | Structure (SMILES)
1 | 2.2 | CCCCCC(OC)c1cccc(-c2csc(NC(=O)c3cc(F)c(C=C(C)C(=O)O)c(F)c3)n2)c1F (stereo not drawn) [Compound B1, 3-(2,6-difluoro-4-{4-[2-fluoro-3-(1-methyloxyhexyl)phenyl]thiazol-2-ylcarbamoyl}phenyl)-2-methylacrylic acid]
2 | 4 | CC(=Cc1c(F)cc(C(=O)Nc2nc(-c3cccc(CCC(C)(C)C)c3F)cs2)cc1F)C(=O)O [Compound B2, 3-(2,6-difluoro-4-{4-[3-(3,3-dimethylbutyl)-2-fluorophenyl]thiazol-2-ylcarbamoyl}phenyl)-2-methylacrylic acid]
3 | 2.4 | CCOC(c1cccc(-c2csc(NC(=O)c3cc(F)c(C=C(C)C(=O)O)c(F)c3)n2)c1F)C1CCCCC1 (stereo not drawn) [Compound B6, 3-(4-{4-[3-(1-cyclohexyl-1-ethyloxymethyl)-2-fluorophenyl]thiazol-2-ylcarbamoyl}-2,6-difluorophenyl)-2-methylacrylic acid]
4 | 3.6 | COC(c1cccc(-c2csc(NC(=O)c3cc(F)c(C=C(C)C(=O)O)c(F)c3)n2)c1F)(C(C)C)C(C)C [Compound B7, 3-(2,6-difluoro-4-{4-[2-fluoro-3-(2,4-dimethyl-3-methyloxy-3-pentyl)phenyl]thiazol-2-ylcarbamoyl}phenyl)-2-methylacrylic acid]
5 | 1.6 | CCCCCCCCCC(OC)c1cccc(-c2csc(NC(=O)c3cc(F)c(C=C(C)C(=O)O)c(F)c3)n2)c1F (stereo not drawn) [Compound B9, 3-(2,6-difluoro-4-{4-[2-fluoro-3-(1-methyloxydecyl)phenyl]thiazol-2-ylcarbamoyl}phenyl)-2-methylacrylic acid]
6 | 1.9 | CCOC(c1cccc(-c2csc(NC(=O)c3cc(F)c(C=C(C)C(=O)O)c(F)c3)n2)c1F)C(C)(C)C (stereo not drawn) [Compound B10, 3-(2,6-difluoro-4-{4-[3-(1-ethyloxy-2,2-dimethylpropyl)-2-fluorophenyl]thiazol-2-ylcarbamoyl}phenyl)-2-methylacrylic acid]
7 | 0.81 | COC(CCC(C)C)c1cccc(-c2csc(NC(=O)c3cc(F)c(C=C(C)C(=O)O)c(F)c3)n2)c1F (stereo not drawn) [Compound B11, 3-(2,6-difluoro-4-{4-[2-fluoro-3-(1-methyloxy-4-methylpentyl)phenyl]thiazol-2-ylcarbamoyl}phenyl)-2-methylacrylic acid]
8 | 2.1 | CCC(CCCc1cccc(-c2csc(NC(=O)c3cc(F)c(C=C(C)C(=O)O)c(F)c3)n2)c1F)OC (stereo not drawn) [Compound B12, 3-(2,6-difluoro-4-{4-[2-fluoro-3-(4-methyloxyhexyl)phenyl]thiazol-2-ylcarbamoyl}phenyl)-2-methylacrylic acid]
9 | 1 | COC(c1cccc(-c2csc(NC(=O)c3cc(F)c(C=C(C)C(=O)O)c(F)c3)n2)c1F)C(C)(C)C (stereo not drawn) [Compound B13, 3-(2,6-difluoro-4-{4-[2-fluoro-3-(1-methyloxy-2,2-dimethylpropyl)phenyl]thiazol-2-ylcarbamoyl}phenyl)-2-methylacrylic acid]
10 | 0.73 | CCCCCOC(c1cccc(-c2csc(NC(=O)c3cc(F)c(C=C(C)C(=O)O)c(F)c3)n2)c1F)C1CCCCC1 (stereo not drawn) [Compound B14, 3-(4-{4-[3-(1-cyclohexyl-1-n-pentyloxymethyl)-2-fluorophenyl]thiazol-2-ylcarbamoyl}-2,6-difluorophenyl)-2-methylacrylic acid]
11 | 0.73 | CCCCCOC(c1cccc(-c2csc(NC(=O)c3cc(F)c(C=C(C)C(=O)O)c(F)c3)n2)c1F)C(C)(C)C (stereo not drawn) [Compound B15, 3-(2,6-difluoro-4-{4-[3-(2,2-dimethyl-1-n-pentyloxypropyl)-2-fluorophenyl]thiazol-2-ylcarbamoyl}phenyl)-2-methylacrylic acid]
12 | 0.77 | CCCCCOC(CCSC)c1cccc(-c2csc(NC(=O)c3cc(F)c(C=C(C)C(=O)O)c(F)c3)n2)c1F (stereo not drawn) [Compound B16, 3-(2,6-difluoro-4-{4-[2-fluoro-3-(3-methylthio-1-n-pentyloxypropyl)phenyl]thiazol-2-ylcarbamoyl}phenyl)-2-methylacrylic acid]
13 | 0.73 | CCCCCOC(CC)c1cccc(-c2csc(NC(=O)c3cc(F)c(C=C(C)C(=O)O)c(F)c3)n2)c1F (stereo not drawn) [Compound B19, 3-(2,6-difluoro-4-{4-[2-fluoro-3-(1-n-pentyloxypropyl)phenyl]thiazol-2-ylcarbamoyl}phenyl)-2-methylacrylic acid]
14 | 0.81 | CC(=Cc1c(F)cc(C(=O)Nc2nc(-c3cccc(CCCOCC(C)(C)C)c3F)cs2)cc1F)C(=O)O [Compound B20]

Continued, compound first:

Row | Structure (SMILES) | EC50 [nM]
15 | CCCCOCCCc1cccc2c1CCc1sc(NC(=O)c3cc(Cl)c(C=C(C)C(=O)O)c(Cl)c3)nc1-2 [Compound A11, 3-{4-[6-(3-n-butyloxypropyl)-4,5-dihydronaphtho[1,2-d]thiazol-2-ylcabamoyl]-2,6-dichlorophenyl}-2-methylacrylic acid] | 0.87
16 | CCCC(CCc1cccc2c1CCc1sc(NC(=O)c3cc(F)c(C=C(C)C(=O)O)c(F)c3)nc1-2)OC (stereo not drawn) [Compound A12, 3-{2,6-difluoro-4-[4,5-dihydro-6-(3-methyloxyhexyl)naphtho[1,2-d]thiazol-2-ylcabamoyl]phenyl}-2-methylacrylic acid] | 0.8
17 | CCCOCCCc1cccc2c1OCc1sc(NC(=O)c3cc(Cl)c(/C=C(\C)C(=O)O)c(Cl)c3)nc1-2 [Compound A1123, (E)-3-{2,6-dichloro-4-[6-(3-propyloxypropyl)-4H-chromeno[4,3-d]thiazol-2-ylcabamoyl]phenyl}-2-methylacrylic acid] | 7.27
18 | CCCc1cccc2c1OCc1sc(NC(=O)c3cc(F)c(/C=C(\C)C(=O)O)c(F)c3)nc1-2 [Compound A1308, (E)-3-[2,6-difluoro-4-(6-propyl-4H-chromeno[4,3-d]thiazol-2-ylcabamoyl)phenyl]-2-methylacrylic acid] | 12.9
19 | C/C(=C\c1c(F)cc(C(=O)Nc2nc3c(s2)COc2c-3cccc2C(C)C)cc1F)C(=O)O [Compound A1309, (E)-3-[2,6-difluoro-4-(6-isopropyl-4H-chromeno[4,3-d]thiazol-2-ylcarbamoyl)phenyl]-2-methylacrylic acid] | 12.8
20 | CCc1cccc2c1OCc1sc(NC(=O)c3cc(Cl)c(/C=C(\C)C(=O)O)c(Cl)c3)nc1-2 [Compound A1310, (E)-3-[2,6-dichloro-4-(6-ethyl-4H-chromeno[4,3-d]thiazol-2-ylcabamoyl)phenyl]-2-methylacrylic acid] | 12.3
21 | CCCc1cccc2c1OCc1sc(NC(=O)c3cc(Cl)c(/C=C(\C)C(=O)O)c(Cl)c3)nc1-2 [Compound A1311, (E)-3-[2,6-dichloro-4-(6-propyl-4H-chromeno[4,3-d]thiazol-2-ylcabamoyl)phenyl]-2-methylacrylic acid] | 8.86
22 | C/C(=C\c1c(Cl)cc(C(=O)Nc2nc3c(s2)COc2c-3cccc2C(C)C)cc1Cl)C(=O)O [Compound A1312, (E)-3-[2,6-dichloro-4-(6-isopropyl-4H-chromeno[4,3-d]thiazol-2-ylcabamoyl)phenyl]-2-methylacrylic acid] | 10.8
23 | CCCCCCc1cccc2c1OCc1sc(NC(=O)c3cc(F)c(/C=C(\C)C(=O)O)c(F)c3)nc1-2 [Compound A1314, (E)-3-[2,6-difluoro-4-(6-hexyl-4H-chromeno[4,3-d]thiazol-2-ylcabamoyl)phenyl]-2-methylacrylic acid] | 12.5
24 | C/C(=C\c1c(F)cc(C(=O)Nc2nc3c(s2)COc2c(CCC(C)(C)C)cccc2-3)cc1F)C(=O)O [Compound A1315, (E)-3-{4-[6-(3,3-dimethylbutyl)-4H-chromeno[4,3-d]thiazol-2-ylcabamoyl]-2,6-difluorophenyl}-2-methylacrylic acid] | 12.5
25 | CCCCCCc1cccc2c1OCc1sc(NC(=O)c3cc(Cl)c(/C=C(\C)C(=O)O)c(Cl)c3)nc1-2 [Compound A1316, (E)-3-[2,6-dichloro-4-(6-hexyl-4H-chromeno[4,3-d]thiazol-2-ylcabamoyl)phenyl]-2-methylacrylic acid] | 5.29
26 | C/C(=C\c1c(Cl)cc(C(=O)Nc2nc3c(s2)COc2c(CCC(C)(C)C)cccc2-3)cc1Cl)C(=O)O [Compound A1317, (E)-3-{2,6-dichloro-4-[6-(3,3-dimethylbutyl)-4H-chromeno[4,3-d]thiazol-2-ylcabamoyl]phenyl}-2-methylacrylic acid] | 15.1
27 | CCCC(CCC)(OC)c1cccc(-c2csc(NC(=O)c3cc(F)c(C=C(C)C(=O)O)c(F)c3)n2)c1F [Compound B8] | 4

Source: US7601746B2 (Shionogi & Co., Ltd., priority 2003, dated 2009)
